From doi:10.1101/2024.08.25.609621 (bioRxiv, 2024)
pIC50: −log10 of the molar value. “And” between values parts separate entries of the source, which are not always exact repeats. Equal entries are not always repeated. Where two headings read alike, the source gives them in different places.

How the values were obtained:
[1] = molecular target: SARS-CoV-2 NSP3 macrodomain (Mac1) (Severe acute respiratory syndrome coronavirus 2, UniProt P0DTD1); test: biochemical; format: binding; conditions: for SARS CoV-2 macrodomain HTRF assay: Hillslope: dose-response fit
[2] = molecular target: SARS-CoV-2 NSP3 macrodomain (Mac1), P43 crystal form (Severe acute respiratory syndrome coronavirus 2, UniProt P0DTD1); format: binding; conditions: for 1-BDC: PanDDA background density correction; for Total number of conformations: ligand conformations modeled in Mac1 crystal structure; for X-ray crystallography: Binding site: site where the ligand is bound in the X-ray crystal structure
[3] = SARS CoV-2 macrodomain HTRF assay, dose-response
[4] = Single dose, concentration 200 μM, read-out: Average % competition
[5] = preliminary screen, compound at 200 μM, mean of 3-4 technical replicates, read-out: % competition in HTRF assay
[6] = X-ray crystal structure determined (TRUE)
[7] = crystal soak 10 mM, P43 crystals
[8] = crystal soak 10 mM, DMSO background map
[9] = occupancy estimate from PanDDA 1-BDC
[10] = site of ligand in X-ray crystal structure
[11] = occupancy estimate from PanDDA BDC
[12] = Dose-response, SARS CoV-2 macrodomain HTRF assay
[13] = Single dose, 200 μM, mean of three technical replicates, read-out: Average % competition
[14] = TRUE = crystal structure with ligand determined
[15] = crystal soak concentration 10 mM, DMSO background map, event 1
[16] = crystal soak concentration 10 mM, P43 crystals
[17] = crystal soak concentration 10 mM, DMSO background map
[18] = crystal soak concentration 20 mM, DMSO background map
[19] = crystal soak concentration 20 mM, DMSO background map, event 1
[20] = crystal soak concentration 20 mM, P43 crystals
[21] = site of Mac1 where ligand bound in crystal structure
[22] = Single dose, concentration 200 μM, read-out: SARS CoV-2 macrodomain HTRF assay: Average % competition
[23] = crystal soak, soak concentration 10 mM
[24] = crystal soak, soak concentration 10 mM, TRUE = ligand hit
[25] = soak concentration 10 mM, DMSO background map

| Compound | Hill slope ([1]; HTRF dose-response fit, Mac1) | inhibition at 200 µM [1, 5] [%] | 1-BDC [2] | X-ray crystal structure [2, 6] | Total number of conformations [2] | 2*(1-BDC) (%) [2, 9] [%] | Binding site [2, 10] | SARS CoV-2 macrodomain HTRF assay: Hillslope [1] | Occupancy difference (refined_occupancy - 2*(1-BDC)) [2] | Refined ligand occupancy (%) [2] [%] | 2*(1-BDC) (%) [2, 11] [%] | X-ray crystallography: Binding site [2] | PanDDA run, DMSO background map: 1-BDC ([2]; DMSO background map, event 1) | further results |
| --- | --- | --- | --- | --- | --- | --- | --- | --- | --- | --- | --- | --- | --- | --- |
| O=C(O)C(F)(F)F.OCC1(Nc2ncnc3[nH]ccc23)CCCC1 [AVI-3692] | 1.3 | 85 | 0.22 | TRUE | 1 | 44 | Adenosine |  |  |  |  |  |  | Hill slope [1, 3]: 1.3; inhibition at 200 µM [1, 4]: 85%; Pandda run, overall: Hit [2, 7]: TRUE; Pandda run, overall: Modeled [2, 7]: TRUE; PanDDA run, DMSO background map: 1-BDC [2, 8]: 0.22; PanDDA run, DMSO background map: Hit [2, 8]: TRUE |
| C[C@H]1CC[C@H](CO)N(c2ncnc3[nH]ccc23)C1 (racemic) [AVI-4063] | 1.1 |  | 0.16 |  | 1 |  |  | 1.1 | 18 | 50 | 32 | Adenosine |  | Hit (PanDDA run, overall) [2, 7]: TRUE; Hit (PanDDA run, DMSO background map) [2, 8]: TRUE; 1-BDC (PanDDA run, DMSO background map) ([2]; crystal soak 10 mM, DMSO background map, event 1): 0.21 and 0.16 |
| OCC(CN1CCCCC1)Nc1ncnc2[nH]ccc12 (centres unmarked) [AVI-3677] |  |  | 0.21 | TRUE | 1 | 42 | Adenosine |  |  |  |  |  |  | % competition in HTRF assay ([1]; preliminary screen, compound at 200 μM, mean of 3-4 technical replicates): neither had detectable binding; Pandda run, overall: Hit [2, 7]: TRUE; Pandda run, overall: Modeled [2, 7]: TRUE; PanDDA run, DMSO background map: 1-BDC [2, 8]: 0.21; PanDDA run, DMSO background map: Hit [2, 8]: TRUE |
| OC1(CNc2ncnc3[nH]ccc23)COC2CC1C2 (centres unmarked) [AVI-4313] | 1.2 |  | 0.19 |  | 1 |  |  | 1.2 | 0 | 38 | 38 | Adenosine | 0.19 and 0.2 |  |
| CC(C)(CO)Nc1ncnc2[nH]ccc12 [AVI-5266] | 1.1 | 56 | 0.12 | TRUE | 1 |  | Adenosine |  | 16 | 40 | 24 |  | 0.12 | Hill slope [1, 3]: 1.1; inhibition at 200 µM [1, 4]: 56% |
| OCC(Cc1ccccc1)Nc1ncnc2[nH]ccc12 (centres unmarked) [AVI-313] | 1.2 | 75 | 0.18 |  | 2 | 36 |  |  |  |  |  |  |  | Hill slope [1, 12]: 1.2; inhibition at 200 µM [1, 13]: 75%; X-ray crystal structure [2, 14]: TRUE; PanDDA run, DMSO background map: 1-BDC [2, 15]: 0.18; Pandda run, overall: Hit [2, 16]: TRUE; Pandda run, overall: Modeled [2, 16]: TRUE; PanDDA run, DMSO background map: Hit [2, 17]: TRUE; PanDDA run, DMSO background map: Modeled [2, 17]: TRUE; PanDDA run, DMSO background map: Hit [2, 18]: TRUE; PanDDA run, DMSO background map: 1-BDC [2, 19]: 0.25; Pandda run, overall: Hit [2, 20]: TRUE; Pandda run, overall: Modeling comment [2, 20]: Duplicate, not modeled; Binding site [2, 21]: Adenosine |
| CC(CNC(=O)c1ccc2c(c1)CCC(=O)N2)C(=O)O (centres unmarked) [AVI-328] | 1.3 | 50 | 0.11 |  | 2 | 22 |  |  |  |  |  |  | 0.25 | Hill slope [1, 12]: 1.3; inhibition at 200 µM [1, 13]: 50%; X-ray crystal structure [2, 14]: TRUE; PanDDA run, DMSO background map: 1-BDC [2, 15]: 0.11 and 0.1; Pandda run, overall: Hit [2, 16]: TRUE; Pandda run, overall: Modeled [2, 16]: TRUE; Pandda run, overall: Modeling comment [2, 16]: Duplicate, not modeled; PanDDA run, DMSO background map: Hit [2, 17]: TRUE; PanDDA run, DMSO background map: Modeled [2, 17]: TRUE; Binding site [2, 21]: Adenosine |
| OC[C@@H]1C[C@@H]2CCC[C@@H]2N1c1ncnc2[nH]ccc12 [AVI-3720] | 1.2 | 92 | 0.29 |  | 1 | 58 |  | 1.2 |  |  |  | Adenosine |  | inhibition at 200 µM [1, 22]: 92%; Phe132 loop open state ([2]; TRUE = open state of Phe132 loop modeled): TRUE; Pandda run, overall: Modeled [2, 23]: TRUE; Pandda run, overall: Hit [2, 24]: TRUE; PanDDA run, DMSO background map: 1-BDC [2, 25]: 0.29; PanDDA run, DMSO background map: Hit [2, 25]: TRUE |
| O=C(O)C(c1ccccc1)n1sc2ccccc2c1=O (centres unmarked) [AVI-288] |  | 21 | 0.37 |  | 1 |  |  |  | 0 | 74 | 74 |  |  | pIC50 ([1]; Dose-response, SARS CoV-2 macrodomain HTRF assay, read-out: IC50): < 3.00; inhibition at 200 µM [1, 13]: 21%; X-ray crystal structure [2, 14]: TRUE; PanDDA run, DMSO background map: Hit [2, 18]: TRUE; PanDDA run, DMSO background map: Modeled [2, 18]: TRUE; PanDDA run, DMSO background map: 1-BDC [2, 19]: 0.37; Pandda run, overall: Hit [2, 20]: TRUE; Pandda run, overall: Modeled [2, 20]: TRUE; Pandda run, overall: Modeling comment [2, 23]: Duplicate, not modeled; Pandda run, overall: Hit ([2]; crystal soak, soak concentration 10 mM, P43 crystals, TRUE = ligand-binding event identified): TRUE; PanDDA run, DMSO background map: Hit ([2]; crystal soak, soak concentration 10 mM, DMSO background map): TRUE; PanDDA run, DMSO background map: 1-BDC ([2]; crystal soak, soak concentration 10 mM, DMSO background map, event 1): 0.26; Binding site [2, 21]: Adenosine |
| OCC1CC2(CCCC2)CN1c1ncnc2[nH]ccc12 (centres unmarked) [AVI-3708] | 1.1 | 90 | 0.32 |  | 1 | 64 |  | 1.1 |  |  |  | Adenosine |  | inhibition at 200 µM [1, 22]: 90%; Pandda run, overall: Modeled [2, 23]: TRUE; Pandda run, overall: Hit [2, 24]: TRUE; PanDDA run, DMSO background map: 1-BDC [2, 25]: 0.32; PanDDA run, DMSO background map: Hit [2, 25]: TRUE |
| O=C(O)C(F)(F)F.OCC1(Nc2ncnc3[nH]ccc23)CCC1 [AVI-3670] | 1.2 | 87 | 0.18 | TRUE | 2 | 36 | Adenosine |  |  |  |  |  |  | Hill slope [1, 3]: 1.2; inhibition at 200 µM [1, 4]: 87%; Pandda run, overall: Hit [2, 7]: TRUE; Pandda run, overall: Modeled [2, 7]: TRUE; PanDDA run, DMSO background map: 1-BDC [2, 8]: 0.18; PanDDA run, DMSO background map: Hit [2, 8]: TRUE |
| OC1(CNc2ncnc3[nH]ccc23)CCOCC1 [AVI-4314] | 1.2 |  | 0.15 |  | 1 |  |  | 1.2 | 0 | 30 | 30 | Adenosine | 0.15 and 0.16 |  |
